This is an account of results in patent publication US11034650B2, “Compounds useful for treating a Mannheimia haemolytica or Histophilus somni infection” (Intervet Inc., priority 2016, dated 2021).

Converted amounts (≈) assume the structure as drawn. Bounds are passed on as bounds.

The first assay deals with Pasteurella multocida PM 10775 (080130003051, BRD field isolate). Nature of the assay: MIC, broth-microdilution (CLSI VET01-A4), strain PM 10775. In kind it is cell-based. The conditions noted are these: Pasteurella multocida strain PM 10775, broth-microdilution; unit assumed. How it is done: (§1) For example, representative compounds were tested against ***, Mannheimia haemolytica and Pasteurella multocida, using the conventional broth-dilution assay.
(§2) The Minimum inhibitory concentrations (MIC) of compounds according to the invention for a number of veterinary bacterial pathogens were determined by the broth-microdilution method according to CLSI document VET01-A4.
(§3) Microdilution trays containing a doubling dilution series of the test compound were used for the tests. The MIC results were interpreted according to the CLSI documents VET01-S3. The lowest concentration of compound at which no visible growth (i.e. no turbidity) detected by the unaided eye was recorded as the MIC.
Background: Dilution methods test growth across graded concentrations, often in twofold steps.
Compound `CC[C@H](C)[C@H](NC(=O)c1ccc(C#Cc2ccc(CN(C)Cc3ccccc3)cc2)cc1)C(=O)NO` [Compound 127] had an MIC PM 10775 of 0.4 µg/mL (≈ 0.827 µM).

For `CC[C@H](C)[C@H](NC(=O)c1ccc(C#Cc2ccc(CN(CC)CC)cc2)cc1)C(=O)NO` [Compound 118], the MIC PM 10775 was 0.2 µg/mL (≈ 0.459 µM).

For the compound `CC(C)(C)C1CCN(Cc2ccc(C#Cc3ccc(C(=O)N[C@@H](CO)C(=O)NO)cc3)cc2)CC1` [Compound 79], the MIC PM 10775 is ≤ 0.1 µg/mL.

Take `CC[C@H](C)[C@H](NC(=O)c1ccc(C#Cc2ccc(CNCC#N)cc2)cc1)C(=O)NO` [Compound 192]: the MIC PM 10775 is ≤ 0.1 µg/mL.

The next assay relates to Mannheimia haemolytica MH 6357 (M7/2, reference strain, cattle infection strain). Nature of the assay: MIC, broth-microdilution (CLSI VET01-A4), strain MH 6357. In kind it is cell-based. The conditions noted are these: Mannheimia haemolytica strain MH 6357, broth-microdilution; unit assumed. The procedure:
as §1, §2, §3
Compound `CC[C@H](C)[C@H](NC(=O)c1ccc(C#Cc2ccc(CN(C)Cc3ccccc3)cc2)cc1)C(=O)NO` [Compound 127] had an MIC MH 6357 of 3.1 µg/mL (≈ 6.41 µM).

As to `CC[C@H](C)[C@H](NC(=O)c1ccc(C#Cc2ccc(CN(CC)CC)cc2)cc1)C(=O)NO` [Compound 118], the MIC MH 6357 was 6.3 µg/mL (≈ 14.5 µM).

`CC(C)(C)C1CCN(Cc2ccc(C#Cc3ccc(C(=O)N[C@@H](CO)C(=O)NO)cc3)cc2)CC1` [Compound 79] returned an MIC MH 6357 of 12.5 µg/mL (≈ 26.2 µM).

With `CC[C@H](C)[C@H](NC(=O)c1ccc(C#Cc2ccc(CNCC#N)cc2)cc1)C(=O)NO` [Compound 192], the MIC MH 6357 was 0.8 µg/mL (≈ 1.91 µM).

A further assay has as its system Pasteurella multocida PM 6267 (P 2225 (L386), reference strain, mouse infection strain). Nature of the assay: MIC, broth-microdilution (CLSI VET01-A4), strain PM 6267. In kind it is cell-based. The conditions noted are these: Pasteurella multocida strain PM 6267, broth-microdilution; unit assumed. The procedure: as §1, §2, §3
`CC[C@H](C)[C@H](NC(=O)c1ccc(C#Cc2ccc(CN(C)Cc3ccccc3)cc2)cc1)C(=O)NO` [Compound 127] returned an MIC PM 6267 of 1.6 µg/mL (≈ 3.31 µM).

Regarding `CC[C@H](C)[C@H](NC(=O)c1ccc(C#Cc2ccc(CN(CC)CC)cc2)cc1)C(=O)NO` [Compound 118], the MIC PM 6267 came out at 0.4 µg/mL (≈ 0.918 µM).

As for `CC(C)(C)C1CCN(Cc2ccc(C#Cc3ccc(C(=O)N[C@@H](CO)C(=O)NO)cc3)cc2)CC1` [Compound 79], the MIC PM 6267 came to 0.4 µg/mL (≈ 0.838 µM).

Take `CC[C@H](C)[C@H](NC(=O)c1ccc(C#Cc2ccc(CNCC#N)cc2)cc1)C(=O)NO` [Compound 192]: the MIC PM 6267 is ≤ 0.1 µg/mL.

For another assay, the system named is Mannheimia haemolytica MH 12587 (1071, BRD field isolate, macrolide-resistance: erm+, E+). Briefly: MIC, broth-microdilution (CLSI VET01-A4), strain MH 12587. It counts as cell-based. The conditions noted are these: Mannheimia haemolytica strain MH 12587, broth-microdilution; unit assumed. How it is done: as §1, §2, §3
Turning to `CC[C@H](C)[C@H](NC(=O)c1ccc(C#Cc2ccc(CN(C)Cc3ccccc3)cc2)cc1)C(=O)NO` [Compound 127], the MIC MH 12587 was 25 µg/mL (≈ 51.7 µM).

`CC[C@H](C)[C@H](NC(=O)c1ccc(C#Cc2ccc(CN(CC)CC)cc2)cc1)C(=O)NO` [Compound 118] showed an MIC MH 12587 of 25 µg/mL (≈ 57.4 µM).

Consider `CC(C)(C)C1CCN(Cc2ccc(C#Cc3ccc(C(=O)N[C@@H](CO)C(=O)NO)cc3)cc2)CC1` [Compound 79], for which the MIC MH 12587 was found to be 25 µg/mL (≈ 52.3 µM).

Consider `CC[C@H](C)[C@H](NC(=O)c1ccc(C#Cc2ccc(CNCC#N)cc2)cc1)C(=O)NO` [Compound 192], for which the MIC MH 12587 is 3.1 µg/mL (≈ 7.41 µM).

The subject of the next assay is Mannheimia haemolytica MH 6374 (ATCC 33396, reference strain). Briefly: MIC, broth-microdilution (CLSI VET01-A4), strain MH 6374. The conditions noted are these: Mannheimia haemolytica strain MH 6374, broth-microdilution; unit assumed. In kind it is cell-based. The procedure: as §1, §2, §3
In turn, `CC[C@H](C)[C@H](NC(=O)c1ccc(C#Cc2ccc(CN(C)Cc3ccccc3)cc2)cc1)C(=O)NO` [Compound 127] registered an MIC MH 6374 of 6.3 µg/mL (≈ 13 µM).

On to `CC[C@H](C)[C@H](NC(=O)c1ccc(C#Cc2ccc(CN(CC)CC)cc2)cc1)C(=O)NO` [Compound 118], for which the MIC MH 6374 was 12.5 µg/mL (≈ 28.7 µM).

`CC(C)(C)C1CCN(Cc2ccc(C#Cc3ccc(C(=O)N[C@@H](CO)C(=O)NO)cc3)cc2)CC1` [Compound 79]: the MIC MH 6374 worked out at 25 µg/mL (≈ 52.3 µM).

With `CC[C@H](C)[C@H](NC(=O)c1ccc(C#Cc2ccc(CNCC#N)cc2)cc1)C(=O)NO` [Compound 192], the MIC MH 6374 was determined as 1.6 µg/mL (≈ 3.82 µM).

The next assay relates to Mannheimia haemolytica MH 13093 (XB0472-6014.1, BRD field isolate). Nature of the assay: MIC, broth-microdilution (CLSI VET01-A4), strain MH 13093. In kind it is cell-based. The conditions noted are these: Mannheimia haemolytica strain MH 13093, broth-microdilution; unit assumed. The procedure: as §1, §2, §3
Compound `CC[C@H](C)[C@H](NC(=O)c1ccc(C#Cc2ccc(CN(C)Cc3ccccc3)cc2)cc1)C(=O)NO` [Compound 127] came in with an MIC MH 13093 of 12.5 µg/mL (≈ 25.8 µM).

As for `CC[C@H](C)[C@H](NC(=O)c1ccc(C#Cc2ccc(CN(CC)CC)cc2)cc1)C(=O)NO` [Compound 118], the MIC MH 13093 worked out at 12.5 µg/mL (≈ 28.7 µM).

As to `CC(C)(C)C1CCN(Cc2ccc(C#Cc3ccc(C(=O)N[C@@H](CO)C(=O)NO)cc3)cc2)CC1` [Compound 79], the MIC MH 13093 stood at 25 µg/mL (≈ 52.3 µM).

`CC[C@H](C)[C@H](NC(=O)c1ccc(C#Cc2ccc(CNCC#N)cc2)cc1)C(=O)NO` [Compound 192] displayed an MIC MH 13093 of 0.8 µg/mL (≈ 1.91 µM).

The subject of a further assay is Mannheimia haemolytica MH 13065 (XB0446-6003.9, BRD field isolate). Nature of the assay: MIC, broth-microdilution (CLSI VET01-A4), strain MH 13065. In kind it is cell-based. The conditions noted are these: Mannheimia haemolytica strain MH 13065, broth-microdilution; unit assumed. The procedure: as §1, §2, §3
The compound `CC[C@H](C)[C@H](NC(=O)c1ccc(C#Cc2ccc(CN(C)Cc3ccccc3)cc2)cc1)C(=O)NO` [Compound 127] returned an MIC MH 13065 of 6.3 µg/mL (≈ 13 µM).

The compound `CC[C@H](C)[C@H](NC(=O)c1ccc(C#Cc2ccc(CN(CC)CC)cc2)cc1)C(=O)NO` [Compound 118] came in with an MIC MH 13065 of 12.5 µg/mL (≈ 28.7 µM).

In turn, `CC(C)(C)C1CCN(Cc2ccc(C#Cc3ccc(C(=O)N[C@@H](CO)C(=O)NO)cc3)cc2)CC1` [Compound 79] displayed an MIC MH 13065 of 12.5 µg/mL (≈ 26.2 µM).

With `CC[C@H](C)[C@H](NC(=O)c1ccc(C#Cc2ccc(CNCC#N)cc2)cc1)C(=O)NO` [Compound 192], the MIC MH 13065 worked out at 0.8 µg/mL (≈ 1.91 µM).

The next assay has as its system Mannheimia haemolytica MH 10720 (154, BRD field isolate). Briefly: MIC, broth-microdilution (CLSI VET01-A4), strain MH 10720. It counts as cell-based. The conditions noted are these: Mannheimia haemolytica strain MH 10720, broth-microdilution; unit assumed. The procedure: as §1, §2, §3
As to `CC[C@H](C)[C@H](NC(=O)c1ccc(C#Cc2ccc(CN(C)Cc3ccccc3)cc2)cc1)C(=O)NO` [Compound 127], the MIC MH 10720 worked out at 1.6 µg/mL (≈ 3.31 µM).

For `CC[C@H](C)[C@H](NC(=O)c1ccc(C#Cc2ccc(CN(CC)CC)cc2)cc1)C(=O)NO` [Compound 118], the MIC MH 10720 amounted to 3.1 µg/mL (≈ 7.12 µM).

Consider `CC(C)(C)C1CCN(Cc2ccc(C#Cc3ccc(C(=O)N[C@@H](CO)C(=O)NO)cc3)cc2)CC1` [Compound 79], for which the MIC MH 10720 is 3.1 µg/mL (≈ 6.49 µM).

Regarding `CC[C@H](C)[C@H](NC(=O)c1ccc(C#Cc2ccc(CNCC#N)cc2)cc1)C(=O)NO` [Compound 192], the MIC MH 10720 came out at 0.2 µg/mL (≈ 0.478 µM).

Another assay deals with Pasteurella multocida PM 12080 (IV102277-0093, BRD field isolate). Briefly: MIC, broth-microdilution (CLSI VET01-A4), strain PM 12080. In kind it is cell-based. The conditions noted are these: Pasteurella multocida strain PM 12080, broth-microdilution; unit assumed. The procedure: as §1, §2, §3
Compound `CC[C@H](C)[C@H](NC(=O)c1ccc(C#Cc2ccc(CN(C)Cc3ccccc3)cc2)cc1)C(=O)NO` [Compound 127] returned an MIC PM 12080 of 1.6 µg/mL (≈ 3.31 µM).

In turn, `CC[C@H](C)[C@H](NC(=O)c1ccc(C#Cc2ccc(CN(CC)CC)cc2)cc1)C(=O)NO` [Compound 118] came in with an MIC PM 12080 of 1.6 µg/mL (≈ 3.67 µM).

For the compound `CC(C)(C)C1CCN(Cc2ccc(C#Cc3ccc(C(=O)N[C@@H](CO)C(=O)NO)cc3)cc2)CC1` [Compound 79], the MIC PM 12080 was found to be 1.6 µg/mL (≈ 3.35 µM).

Regarding `CC[C@H](C)[C@H](NC(=O)c1ccc(C#Cc2ccc(CNCC#N)cc2)cc1)C(=O)NO` [Compound 192], the MIC PM 12080 is ≤ 0.1 µg/mL.
